Data reported in US20020173424A1, “Heterocyclyl-substituted benzoylcyclohexandiones, their preparation, and their use as herbicides” (priority 2000, published 2002).

Experiments:
Setaria species = test: Comparative experiment, post-emergence action against Setaria species; assay type: in vivo; conditions: even at a lower application rate
Method: Seeds of monocotyledonous and dicotyledonous weeds are placed in sandy loam soil in cardboard pots, covered with soil and grown in the greenhouse under good growth conditions. Two to three weeks after sowing, the experimental plants are treated at the three-leaf stage. The compounds according to the invention, which are formulated as wettable powders or as emulsion concentrates, are sprayed at a rate of 1 kg of active substance or less per hectare (converted) onto the green plant organs at an application rate of 600 to 800 l of water per ha (converted). After the experimental plants have remained in the greenhouse for approx. 3 to 4 weeks under optimal growth conditions, the effect of the compositions is scored visually in comparison with untreated controls. The compounds according to the invention also have a good herbicidal action against a broad spectrum of economically important monocotyledonous and dicotyledonous harmful plants when applied post-emergence. A large number of compositions according to the invention have an outstanding herbicidal action against the harmful plants.
5. Comparative Experiments
Analogously to the experimental conditions mentioned under item 2 (post-emergence herbicidal action), compound No. 1.1 according to the invention was compared with a prior-art compound with regard to its effect against Setaria species.

| melting point [°C] | Structure (SMILES) | action against Setaria species compared with prior-art compound (Setaria species) |
| --- | --- | --- |
| – | CS(=O)(=O)c1ccc(C(=O)C2C(=O)CCCC2=O)c(Cl)c1C1=NOC2OCCC12 (centres unmarked) [1.1, 2-[2-chloro-4-methylsulfonyl-3-(3a,4,5,6a-tetrahydrofuro-[3,2-d]isoxazol-3-yl)benzoyl]cyclohexane-1,3-dione] | more potent action against Setaria species than the prior-art compound |
| 99 | CCS(=O)(=O)c1ccc(C(=O)C2C(=O)CCCC2=O)c(Cl)c1C1=NOC2OCCC12 (centres unmarked) [1.2, 2-[2-chloro-4-ethylsulfonyl-3-(3a,4,5,6a-tetrahydrofuro[3,2-d]isoxazol-3-yl)benzoyl]cyclohexane-1,3-dione] | – |
